Results on 16 compounds are retold here after ChEMBL document CHEMBL5052836, “Interleukin-15 activity antagonist peptide” (2019).

Active and inactive are the calls of the source. No cut-off for these calls is given here.

A word on the IC50: it is the point on the concentration scale where inhibition reaches its midpoint. Lower therefore signals higher potency. Usually inhibition stands for the relative decrease from the control value, in per cent.

Assay [1] in a line: Inhibition of cell proliferation in IL-15-induced mouse CTLL-2 cells measured after 72 hrs by MTT assay. In kind it is functional, cell-based. The conditions noted are these: CTLL-2, 72 h.
The species entered for the next assay is Homo sapiens. Description: Antagonist activity at IL-15Ralpha (unknown origin) assessed as inhibition of IL-15/IL-15Ralpha complex formation at 20 ug/ml using TMB as substrate incubated for 1 hr and measured after 1 hr by ELISA relative to control. The conditions noted are these: filed as antagonist, dose 20.0 µg/ml.
Assay [2] concerns Synovial cell. Nature of the assay: Inhibition of IL-15-induced TNF-alpha secretion in human synovial cells at 50 ug/ml and measured after 48 hrs by ELISA relative to control. The assay is classed as functional, cell-based. The conditions noted are these: dose 50.0 µg/ml. Background: ELISA stands for enzyme-linked immunosorbent assay.
For assay [3], the system named is Synovial cell. Description: Inhibition of IL-15-induced IL-6 secretion in human synovial cells at 50 ug/ml and measured after 48 hrs by ELISA relative to control. The assay is classed as functional, cell-based. As to conditions: dose 50.0 µg/ml.

Take `CSCC[C@H](NC(=O)[C@H](C)NC(=O)[C@H](NC(=O)[C@@H](NC(=O)[C@@H](N)CCCCN)C(C)C)[C@H](C)O)C(=O)N[C@@H](CCCCN)C(=O)N[C@@H](CS)C(=O)N[C@@H](Cc1ccccc1)C(=O)N[C@@H](CC(C)C)C(=O)N[C@@H](CC(C)C)C(=O)O`: the IC50 in assay [1] came to 159 µM.

Regarding `CSCC[C@H](NC(=O)[C@@H](C)NC(=O)[C@@H](NC(=O)[C@@H](NC(=O)[C@H](N)CCCCN)C(C)C)[C@@H](C)O)C(=O)N[C@@H](CCCCN)C(=O)N[C@@H](CS)C(=O)N[C@@H](Cc1ccccc1)C(=O)N[C@@H](CC(C)C)C(=O)N[C@@H](CC(C)C)C(=O)O`, the inhibition in the assay listed under Homo sapiens amounted to 89%. Further, the 50% inhibitory concentration (IC50) in assay [1] worked out at 29 µM. Also, the inhibition entry in the assay with Synovial cell [2] and with Synovial cell [3] was “Active” each time.

Compound `CSCC[C@H](NC(=O)[C@H](C)NC(=O)[C@@H](NC(=O)[C@@H](NC(=O)[C@@H](N)CCCCN)C(C)C)[C@@H](C)O)C(=O)N[C@H](CCCCN)C(=O)N[C@@H](CS)C(=O)N[C@@H](Cc1ccccc1)C(=O)N[C@@H](CC(C)C)C(=O)N[C@@H](CC(C)C)C(=O)O` showed an IC50 in assay [1] of 168 µM.

With `CSCC[C@H](NC(=O)[C@@H](C)NC(=O)[C@@H](NC(=O)[C@@H](NC(=O)[C@@H](N)CCCCN)C(C)C)[C@@H](C)O)C(=O)N[C@@H](CCCCN)C(=O)N[C@H](CSSC[C@@H](NC(=O)[C@H](CCCCN)NC(=O)[C@H](CCSC)NC(=O)[C@@H](C)NC(=O)[C@@H](NC(=O)[C@@H](NC(=O)[C@@H](N)CCCCN)C(C)C)[C@@H](C)O)C(=O)N[C@@H](Cc1ccccc1)C(=O)N[C@@H](CC(C)C)C(=O)N[C@@H](CC(C)C)C(=O)O)C(=O)N[C@@H](Cc1ccccc1)C(=O)N[C@@H](CC(C)C)C(=O)N[C@@H](CC(C)C)C(=O)O`, the IC50 in assay [1] is 56 µM.

Take `CSCC[C@H](NC(=O)[C@H](C)NC(=O)[C@@H](NC(=O)[C@H](NC(=O)[C@@H](N)CCCCN)C(C)C)[C@@H](C)O)C(=O)N[C@@H](CCCCN)C(=O)N[C@@H](CS)C(=O)N[C@@H](Cc1ccccc1)C(=O)N[C@@H](CC(C)C)C(=O)N[C@@H](CC(C)C)C(=O)O`: half-maximal inhibition in assay [1] (IC50) was put at 142 µM.

In the case of `CSCC[C@H](NC(=O)[C@H](C)NC(=O)[C@@H](NC(=O)[C@@H](NC(=O)[C@@H](N)CCCCN)C(C)C)[C@@H](C)O)C(=O)N[C@@H](CCCCN)C(=O)N[C@@H](CS)C(=O)N[C@@H](Cc1ccccc1)C(=O)N[C@@H](CC(C)C)C(=O)N[C@H](CC(C)C)C(=O)O`, the concentration for half-maximal inhibition (IC50) in assay [1] was 133 µM.

Compound `CSCC[C@@H](NC(=O)[C@H](C)NC(=O)[C@@H](NC(=O)[C@@H](NC(=O)[C@@H](N)CCCCN)C(C)C)[C@@H](C)O)C(=O)N[C@@H](CCCCN)C(=O)N[C@@H](CS)C(=O)N[C@@H](Cc1ccccc1)C(=O)N[C@@H](CC(C)C)C(=O)N[C@@H](CC(C)C)C(=O)O` came in with a 50% inhibitory concentration (IC50) in assay [1] of 292 µM.

In assay [1], `CSCC[C@H](NC(=O)[C@H](C)NC(=O)[C@@H](NC(=O)[C@@H](NC(=O)[C@@H](N)CCCCN)C(C)C)[C@@H](C)O)C(=O)N[C@@H](CCCCN)C(=O)N[C@@H](CS)C(=O)N[C@H](Cc1ccccc1)C(=O)N[C@@H](CC(C)C)C(=O)N[C@@H](CC(C)C)C(=O)O` yielded a half-maximal inhibitory concentration (IC50) of 118 µM.

For the compound `CSCC[C@H](NC(=O)[C@H](C)NC(=O)[C@@H](NC(=O)[C@@H](NC(=O)[C@@H](N)CCCCN)C(C)C)[C@@H](C)O)C(=O)N[C@@H](CCCCN)C(=O)N[C@@H](CS)C(=O)N[C@@H](Cc1ccccc1)C(=O)N[C@@H](CC(C)C)C(=O)N[C@@H](CC(C)C)C(=O)O`, the inhibition in the assay listed under Homo sapiens came out at 70%. In assay [1], the IC50 is 130 µM.

Regarding `CSCC[C@H](NC(=O)[C@H](C)NC(=O)[C@@H](NC(=O)[C@@H](NC(=O)[C@H](N)CCCCN)C(C)C)[C@@H](C)O)C(=O)N[C@@H](CCCCN)C(=O)N[C@@H](CS)C(=O)N[C@@H](Cc1ccccc1)C(=O)N[C@@H](CC(C)C)C(=O)N[C@@H](CC(C)C)C(=O)O`, the IC50 in assay [1] amounted to 100 µM.

For `CSCC[C@H](NC(=O)[C@@H](C)NC(=O)[C@@H](NC(=O)[C@@H](NC(=O)[C@@H](N)CCCCN)C(C)C)[C@@H](C)O)C(=O)N[C@@H](CCCCN)C(=O)N[C@@H](CS)C(=O)N[C@@H](Cc1ccccc1)C(=O)N[C@@H](CC(C)C)C(=O)N[C@@H](CC(C)C)C(=O)O`, the inhibition in the assay listed under Homo sapiens is 92%. In addition, the 50% inhibitory concentration (IC50) in assay [1] was found to be 28 µM. The inhibition result in the assay with Synovial cell [2] and in the assay with Synovial cell [3] was “Active” each time.

Take `CSCC[C@H](NC(=O)[C@H](C)NC(=O)[C@@H](NC(=O)[C@@H](NC(=O)[C@@H](N)CCCCN)C(C)C)[C@@H](C)O)C(=O)N[C@@H](CCCCN)C(=O)N[C@H](CS)C(=O)N[C@@H](Cc1ccccc1)C(=O)N[C@@H](CC(C)C)C(=O)N[C@@H](CC(C)C)C(=O)O`: the IC50 in assay [1] was determined as 103 µM.

In the case of `CSCC[C@H](NC(=O)[C@@H](C)NC(=O)[C@@H](NC(=O)[C@@H](NC(=O)[C@H](N)CCCCN)C(C)C)[C@@H](C)O)C(=O)N[C@@H](CCCCN)C(=O)N[C@@H](CSSC[C@H](NC(=O)[C@H](CCCCN)NC(=O)[C@H](CCSC)NC(=O)[C@@H](C)NC(=O)[C@@H](NC(=O)[C@@H](NC(=O)[C@H](N)CCCCN)C(C)C)[C@@H](C)O)C(=O)N[C@@H](Cc1ccccc1)C(=O)N[C@@H](CC(C)C)C(=O)N[C@@H](CC(C)C)C(=O)O)C(=O)N[C@@H](Cc1ccccc1)C(=O)N[C@@H](CC(C)C)C(=O)N[C@@H](CC(C)C)C(=O)O`, the inhibition in the assay listed under Homo sapiens turned out to be 92%. In assay [1], this compound showed an IC50 of 12 µM. Besides, the inhibition result in the assay on Synovial cell [2] and in the assay on Synovial cell [3] was “Active” throughout.

In turn, `CSCC[C@H](NC(=O)[C@@H](C)NC(=O)[C@@H](NC(=O)[C@@H](NC(=O)[C@@H](N)CCCCN)C(C)C)[C@@H](C)O)C(=O)N[C@@H](CCCCN)C(=O)N[C@H](CS)C(=O)N[C@@H](Cc1ccccc1)C(=O)N[C@@H](CC(C)C)C(=O)N[C@@H](CC(C)C)C(=O)O` returned a half-maximal inhibitory concentration (IC50) in assay [1] of 296 µM.

For the compound `CSCC[C@H](NC(=O)[C@@H](C)NC(=O)[C@@H](NC(=O)[C@@H](NC(=O)[C@@H](N)CCCCN)C(C)C)[C@@H](C)O)C(=O)N[C@@H](CCCCN)C(=O)N[C@@H](CSSC[C@H](NC(=O)[C@H](CCCCN)NC(=O)[C@H](CCSC)NC(=O)[C@@H](C)NC(=O)[C@@H](NC(=O)[C@@H](NC(=O)[C@@H](N)CCCCN)C(C)C)[C@@H](C)O)C(=O)N[C@@H](Cc1ccccc1)C(=O)N[C@@H](CC(C)C)C(=O)N[C@@H](CC(C)C)C(=O)O)C(=O)N[C@@H](Cc1ccccc1)C(=O)N[C@@H](CC(C)C)C(=O)N[C@@H](CC(C)C)C(=O)O`, in the assay filed under Homo sapiens, the inhibition is 96%. The compound also yielded a half-maximal inhibitory concentration (IC50) in assay [1] of 8 µM. In addition, the inhibition result in the assay on Synovial cell [2] and in the assay on Synovial cell [3] was “Active” in each case.

Compound `CSCC[C@H](NC(=O)[C@H](C)NC(=O)[C@@H](NC(=O)[C@@H](NC(=O)[C@@H](N)CCCCN)C(C)C)[C@@H](C)O)C(=O)N[C@@H](CCCCN)C(=O)N[C@@H](CS)C(=O)N[C@@H](Cc1ccccc1)C(=O)N[C@H](CC(C)C)C(=O)N[C@@H](CC(C)C)C(=O)O` displayed a concentration for half-maximal inhibition (IC50) in assay [1] of 134 µM.
